Measurements as given in the NIST ThermoML archive (doi:10.1021/je400529k).

What was measured:
[1] = xn = mol fraction of the nth substance listed; conditions: 101 kPa, Liquid; for viscosity: Capillary tube (Ostwald / Ubbelohde) method; for mass density: Vibrating tube method
[2] = refractive index (Na D-line) (dimensionless); xn = mol fraction of the nth substance listed; conditions: 101 kPa, Liquid, Standard Abbe refractometry

CCC1CCCCC1 [ethylcyclohexane] + C1C[C@@H]2[C@H]3CC[C@H](C3)[C@@H]2C1
Conditions | mass density, [1] [kg/m3] | refractive index, [2] | viscosity, [1] [mPa·s]
293.15 K, x2 = 0 | 788.02 | 1.4319 | 0.845
293.15 K, x2 = 0.0997 | 803.52 | 1.4378 | 0.941
293.15 K, x2 = 0.2006 | 818.96 | 1.4437 | 1.052
293.15 K, x2 = 0.3001 | 834.08 | 1.4494 | 1.189
293.15 K, x2 = 0.4003 | 849.15 | 1.4551 | 1.344
293.15 K, x2 = 0.5001 | 863.99 | 1.4605 | 1.514
293.15 K, x2 = 0.6011 | 878.81 | 1.4667 | 1.726
293.15 K, x2 = 0.7 | 893.21 | 1.4717 | 1.965
293.15 K, x2 = 0.8001 | 907.54 | 1.4769 | 2.251
293.15 K, x2 = 0.8996 | 921.66 | 1.4824 | 2.593
298.15 K, x2 = 0 | 784.01 | – | 0.791
298.15 K, x2 = 0.0997 | 799.47 | – | 0.878
298.15 K, x2 = 0.2006 | 814.95 | – | 0.979
298.15 K, x2 = 0.3001 | 830.07 | – | 1.104
298.15 K, x2 = 0.4003 | 845.18 | – | 1.243
298.15 K, x2 = 0.5001 | 860.01 | – | 1.396
298.15 K, x2 = 0.6011 | 874.85 | – | 1.586
298.15 K, x2 = 0.7 | 889.26 | – | 1.8
298.15 K, x2 = 0.8001 | 903.61 | – | 2.055
298.15 K, x2 = 0.8996 | 917.75 | – | 2.358
303.15 K, x2 = 0 | 779.98 | 1.4276 | 0.743
303.15 K, x2 = 0.0997 | 795.44 | 1.4334 | 0.822
303.15 K, x2 = 0.2006 | 810.94 | 1.4389 | 0.914
303.15 K, x2 = 0.3001 | 826.06 | 1.4446 | 1.028
303.15 K, x2 = 0.4003 | 841.18 | 1.4506 | 1.155
303.15 K, x2 = 0.5001 | 856.03 | 1.4559 | 1.293
303.15 K, x2 = 0.6011 | 870.9 | 1.4617 | 1.464
303.15 K, x2 = 0.7 | 885.3 | 1.4674 | 1.656
303.15 K, x2 = 0.8001 | 899.67 | 1.4724 | 1.884
303.15 K, x2 = 0.8996 | 913.82 | 1.4776 | 2.155
308.15 K, x2 = 0 | 775.93 | – | 0.7
308.15 K, x2 = 0.0997 | 791.4 | – | 0.772
308.15 K, x2 = 0.2006 | 806.91 | – | 0.856
308.15 K, x2 = 0.3001 | 822.04 | – | 0.96
308.15 K, x2 = 0.4003 | 837.18 | – | 1.076
308.15 K, x2 = 0.5001 | 852.03 | – | 1.202
308.15 K, x2 = 0.6011 | 866.92 | – | 1.356
308.15 K, x2 = 0.7 | 881.34 | – | 1.53
308.15 K, x2 = 0.8001 | 895.72 | – | 1.735
308.15 K, x2 = 0.8996 | 909.89 | – | 1.976
313.15 K, x2 = 0 | 771.86 | 1.4225 | 0.661
313.15 K, x2 = 0.0997 | 787.34 | 1.4286 | 0.727
313.15 K, x2 = 0.2006 | 802.87 | 1.4343 | 0.804
313.15 K, x2 = 0.3001 | 818 | 1.4401 | 0.9
313.15 K, x2 = 0.4003 | 833.14 | 1.4458 | 1.005
313.15 K, x2 = 0.5001 | 848.02 | 1.4514 | 1.12
313.15 K, x2 = 0.6011 | 862.92 | 1.4572 | 1.261
313.15 K, x2 = 0.7 | 877.36 | 1.4625 | 1.417
313.15 K, x2 = 0.8001 | 891.76 | 1.4679 | 1.602
313.15 K, x2 = 0.8996 | 905.95 | 1.4732 | 1.82
318.15 K, x2 = 0 | 767.78 | – | 0.626
318.15 K, x2 = 0.0997 | 783.25 | – | 0.687
318.15 K, x2 = 0.2006 | 798.78 | – | 0.758
318.15 K, x2 = 0.3001 | 813.96 | – | 0.845
318.15 K, x2 = 0.4003 | 829.08 | – | 0.942
318.15 K, x2 = 0.5001 | 843.99 | – | 1.047
318.15 K, x2 = 0.6011 | 858.88 | – | 1.175
318.15 K, x2 = 0.7 | 873.35 | – | 1.317
318.15 K, x2 = 0.8001 | 887.8 | – | 1.485
318.15 K, x2 = 0.8996 | 901.99 | – | 1.682
